Experimental data as given in ChEMBL document CHEMBL3351688, “Studies on the anticonvulsant activity of 4-alkyl-1,2,4-triazole-3-thiones and their effect on GABAergic system” (Eur J Med Chem, 2014).

How the values were obtained:
[1] = Protective index, ratio of TD50 in ip Swiss mouse dosed intraperitoneally 60 mins before test by Chimney test to anticonvulsant ED50 in Swiss mouse dosed intraperitoneally 60 mins before test by MES test; type: ADME, organism-based; conditions: in vivo, read-out: Ratio TD50/ED50
Rattus norvegicus = species: Rattus norvegicus; test: Displacement of [3H]flunitrazepam form benzodiazepine receptor in rat cerebral cortex assessed as specific radio-ligand binding level at 1 uM incubated for 20 mins by liquid scintillation counting method; type: tissue-based
[2] = Toxicity in Swiss mouse assessed as effect on motor performance administered intraperitoneally 15 mins before test by Chimney test; type: organism-based; conditions: in vivo, ip
Mus musculus [3] = test: Anticonvulsant activity in Swiss mouse assessed as protection against seizures at 300 mg/kg, ip administered 60 mins before test by maximal electroshock seizure test; type: functional; conditions: route intraperitoneal
Mus musculus [4] = test: Anticonvulsant activity in Swiss mouse assessed as protection against seizures at 300 mg/kg, ip administered 30 mins before test by maximal electroshock seizure test; type: functional; conditions: route intraperitoneal
Mus musculus [5] = test: Anticonvulsant activity in Swiss mouse assessed as protection against seizures administered intraperitoneally 60 mins before test by maximal electroshock seizure test; type: functional; conditions: ip
[6] = Toxicity in Swiss mouse assessed as effect on motor performance administered intraperitoneally 30 mins before test by Chimney test; type: organism-based; conditions: in vivo, ip
Mus musculus [7] = test: Anticonvulsant activity in Swiss mouse assessed as protection against seizures administered intraperitoneally 120 mins before test by maximal electroshock seizure test; type: functional; conditions: ip
Mus musculus [8] = test: Anticonvulsant activity in Swiss mouse assessed as protection against seizures administered intraperitoneally 30 mins before test by maximal electroshock seizure test; type: functional; conditions: ip
[9] = Toxicity in Swiss mouse assessed as effect on motor performance administered intraperitoneally 120 mins before test by Chimney test; type: organism-based; conditions: in vivo, ip
Mus musculus [10] = test: Anticonvulsant activity in Swiss mouse assessed as protection against seizures at 300 mg/kg, ip administered 120 mins before test by maximal electroshock seizure test; type: functional; conditions: route intraperitoneal
Mus musculus [11] = test: Anticonvulsant activity in Swiss mouse assessed as protection against seizures at 300 mg/kg, ip administered 15 mins before test by maximal electroshock seizure test; type: functional; conditions: route intraperitoneal
[12] = biological target: GABA-A receptor; anion channel (Homo sapiens) (UniProt P14867+P47870+P18507+P28472+P48169+Q99928+Q9UN88+P34903+O00591+O14764+Q8N1C3+P18505+P78334+P47869+P31644+Q16445); test: Displacement of [3H]muscimol form GABAA receptor in rat cerebral cortex assessed as specific radio-ligand binding level at 1 uM incubated for 10 mins by liquid scintillation counting method; type: tissue-based; conditions: target entry is the homologue from another species
[13] = Protective index, ratio of TD50 in ip Swiss mouse dosed intraperitoneally 15 mins before test by Chimney test to anticonvulsant ED50 in Swiss mouse dosed intraperitoneally 15 mins before test by MES test; type: ADME, organism-based; conditions: in vivo, read-out: Ratio TD50/ED50
[14] = Protective index, ratio of TD50 in ip Swiss mouse dosed intraperitoneally 30 mins before test by Chimney test to anticonvulsant ED50 in Swiss mouse dosed intraperitoneally 30 mins before test by MES test; type: ADME, organism-based; conditions: in vivo, read-out: Ratio TD50/ED50
[15] = Toxicity in Swiss mouse assessed as effect on motor performance administered intraperitoneally 60 mins before test by Chimney test; type: organism-based; conditions: in vivo, ip
Mus musculus [16] = test: Anticonvulsant activity in Swiss mouse assessed as protection against seizures administered intraperitoneally 15 mins before test by maximal electroshock seizure test; type: functional; conditions: ip
[17] = Protective index, ratio of TD50 in ip Swiss mouse dosed intraperitoneally 120 mins before test by Chimney test to anticonvulsant ED50 in Swiss mouse dosed intraperitoneally 120 mins before test by MES test; type: ADME, organism-based; conditions: in vivo, read-out: Ratio TD50/ED50

SMILES	selectivity ratio at 1 h [1]	Activity (Rattus norvegicus)	TD50 at 0.25 h [2]	Activity (Mus musculus [3])	Activity (Mus musculus [4])	ED50 (Mus musculus [5])	TD50 at 0.5 h [6]	ED50 (Mus musculus [7])	ED50 (Mus musculus [8])	TD50 at 2 h [9]	Activity (Mus musculus [10])	Activity (Mus musculus [11])	Activity [12]	selectivity ratio at 0.25 h [13]	selectivity ratio at 0.5 h [14]	TD50 at 1 h [15]	ED50 (Mus musculus [16])	selectivity ratio at 2 h [17]
CCCCCn1c(-c2cccc(Cl)c2Cl)n[nH]c1=S	1.2	18%	386 mg/kg	62.5%	62.5%	285 mg/kg	354 mg/kg	348 mg/kg	276 mg/kg	326 mg/kg	37.5%	37.5%	0%	1.2	1.3	348 mg/kg	329 mg/kg	
CCCCCCCCCn1c(Cc2cccc(Cl)c2)n[nH]c1=S	5.7	0%	476 mg/kg	100%	100%	86.8 mg/kg	493 mg/kg	200 mg/kg	117 mg/kg	465 mg/kg	82.5%	82.5%	0%	2.5	4.2	493 mg/kg	193 mg/kg	2.3
CCCCn1c(-c2cccc(Cl)c2Cl)n[nH]c1=S		14%		25%	12.5%						0%	12.5%	16%					
CCCCCCn1c(-c2cccc(Cl)c2Cl)n[nH]c1=S		10%		25%	12.5%						12.5%	12.5%	2%					
CCCCn1c(Cc2cccc(Cl)c2)n[nH]c1=S	4.8	0%	326 mg/kg	100%	100%	61.5 mg/kg	310 mg/kg	102 mg/kg	43.2 mg/kg	325 mg/kg	100%	100%	13%	7.3	7.2	298 mg/kg	44.5 mg/kg	3.2
CN1C(=O)CN=C(c2ccccc2)c2cc(Cl)ccc21		83%																
NCCCC(=O)O													82%					
CCCCCCCn1c(Cc2cccc(Cl)c2)n[nH]c1=S	7.3	1%	507 mg/kg	100%	100%	70.6 mg/kg	640 mg/kg	89.6 mg/kg	76.3 mg/kg	442 mg/kg	100%	100%	4%	10.2	8.4	519 mg/kg	49.7 mg/kg	4.9
CCCCCCCCCCn1c(Cc2cccc(Cl)c2)n[nH]c1=S		12%		0%	0%						0%	0%	15%					
Cc1ccc(-c2nc3ccc(C)cn3c2CC(=O)N(C)C)cc1		73%																
CCCCCn1c(Cc2cccc(Cl)c2)n[nH]c1=S	4.8	14%	371 mg/kg	100%	100%	68.4 mg/kg	322 mg/kg	84.2 mg/kg	62.5 mg/kg	348 mg/kg	100%	100%	10%	7.6	5.2	329 mg/kg	48.5 mg/kg	4.1
CCCCCCCn1c(-c2cccc(Cl)c2Cl)n[nH]c1=S		8%		25%	25%						12.5%	25%	3%					
CCCCCCCCn1c(Cc2cccc(Cl)c2)n[nH]c1=S	2.8	0%	391 mg/kg	100%	100%	153 mg/kg	486 mg/kg	224 mg/kg	166 mg/kg	441 mg/kg	82.5%	100%	8%	2.4	2.9	436 mg/kg	162 mg/kg	2
CCCCCCCCCCCCn1c(Cc2cccc(Cl)c2)n[nH]c1=S		12%		0%	0%						0%	0%	0%					
CCn1c(-c2cccc(Cl)c2Cl)n[nH]c1=S		5%		0%	0%						0%	0%	19%					
CCn1c(Cc2cccc(Cl)c2)n[nH]c1=S	4.1	15%	297 mg/kg	100%	100%	69.9 mg/kg	285 mg/kg	88.3 mg/kg	54.4 mg/kg	345 mg/kg	100%	100%	0%	5.8	5.2	290 mg/kg	51.1 mg/kg	3.9
CCCCCCn1c(Cc2cccc(Cl)c2)n[nH]c1=S	6.5	1%	> 1000 mg/kg	100%	100%	83.6 mg/kg	> 1000 mg/kg	97.9 mg/kg	74.5 mg/kg	548 mg/kg	100%	100%	3%	> 13.9	> 13.4	541 mg/kg	72.1 mg/kg	5.6
